What was measured:
[1] = system: lambsquarters; test: Test C preemergence; format: in vivo, Chenopodium album
Description: (§1) Seeds of plant species selected from blackgrass (Alopecurus myosuroides), ryegrass, Italian (Italian ryegrass, Lolium multiflorum), wheat (winter wheat, Triticum aestivum), galium (catchweed bedstraw, Galium aparine), corn (Zea mays), crabgrass, large (large crabgrass, Digitaria sanguinalis), foxtail, giant (giant foxtail, Setaria faberii), johnsongrass (Sorghum halepense), lambsquarters (Chenopodium album), morningglory (Ipomoea coccinea), nutsedge, yellow (yellow nutsedge, Cyperus esculentus), pigweed (redroot pigweed, Amaranthus retroflexus), ragweed (common ragweed, Ambrosia elation), soybean (Glycine max), barnyardgrass (Echinochloa crus-galli), oilseed rape (Brassica napus), waterhemp (common waterhemp, Amaranthus rudis), oat, wild (wild oat, Avena fatua), kochia (Kochia scoparia), Surinam grass (Brachiaria decumbens), foxtail, green (green foxtail, Setaria viridis), goosegrass (Eleusine indica), bromegrass, downy (downy bromegrass, Bromus tectorum), nightshade (eastern black nightshade, Solanum ptycanthum), cocklebur (common cocklebur, Xanthium strumarium), cupgrass, woolly (woolly cupgrass, Eriochloa villosa), bermudagrass (Cynodon dactylon), sunflower, (common oilseed sunflower, Helianthus annuus), Russian thistle (Salsola kali), and velvetleaf (Abutilon theophrasti) were planted into a blend of loam soil and sand and treated preemergence with test chemicals formulated in a non-phytotoxic solvent mixture which included a surfactant.
(§2) At the same time, plants selected from these crop and weed species and also chickweed (common chickweed, Stellaria media), canarygrass (littleseed canarygrass, Phalaris minor), and deadnettle (henbit deadnettle, Lamium amplexicaule), were planted in pots containing Redi-Earth® planting medium (Scotts Company, 14111 Scottslawn Road, Marysville, Ohio 43041) comprising spaghnum peat moss, vermiculite, wetting agent and starter nutrients and treated with postemergence applications of test chemicals formulated in the same manner. Plants ranged in height from 2 to 18 cm (1- to 4-leaf stage) for postemergence treatments. Treated plants and controls were maintained in a greenhouse for 13 to 15 days, after which time all species were compared to controls and visually evaluated. Plant response ratings, summarized in Table C, are based on a scale of 0 to 100 where 0 is no effect and 100 is complete control. A dash (-) response means no test result.

[2] = system: chickweed; test: Test C postemergence; format: in vivo, Stellaria media
Description: as §1, §2

[3] = system: waterhemp; test: Test C postemergence; format: in vivo, Amaranthus rudis; conditions: postemergence, 250 g ai/ha; scale 0 to 100 (0 no effect, 100 complete control)
Description: as §1, §2

[4] = system: foxtail, giant; test: Test C postemergence; format: in vivo, Setaria faberii
Description: as §1, §2

[5] = system: wheat; test: Test C postemergence; format: in vivo, Triticum aestivum; conditions: postemergence
Description: as §1, §2

[6] = system: ragweed; test: Test C postemergence; format: in vivo, Ambrosia elation; conditions: postemergence
Description: as §1, §2

[7] = system: crabgrass, large; test: Test C postemergence; format: in vivo, Digitaria sanguinalis
Description: as §1, §2

[8] = system: blackgrass; test: Test C postemergence; format: in vivo, Alopecurus myosuroides
Description: as §1, §2

[9] = system: galium; test: Test C postemergence; format: in vivo, Galium aparine
Description: as §1, §2

[10] = system: morningglory; test: Test C postemergence; format: in vivo, Ipomoea coccinea
Description: as §1, §2

[11] = system: ryegrass, Italian; test: Test C postemergence; format: in vivo, Lolium multiflorum; conditions: postemergence
Description: as §1, §2

[12] = system: barnyardgrass; test: Test C postemergence; format: in vivo, Echinochloa crus-galli
Description: as §1, §2

[13] = system: corn; test: Test C postemergence; format: in vivo, Zea mays
Description: as §1, §2

[14] = system: soybean; test: Test C postemergence; format: in vivo, Glycine max; conditions: postemergence
Description: as §1, §2

[15] = preemergence, 62 g ai/ha, scale 0 to 100 (0 no effect, 100 complete control), 13 to 15 days
[16] = Postemergence, 31 g ai/ha, visually evaluated after 13 to 15 days
[17] = postemergence, 62 g ai/ha, scale 0 to 100
[18] = postemergence, 250 g ai/ha, scale 0 to 100 (0 no effect, 100 complete control)
[19] = postemergence, 125 g ai/ha, scale 0 to 100, 0 no effect, 100 complete control
[20] = 250 g ai/ha, scale 0 to 100 (0 no effect, 100 complete control)
[21] = 125 g ai/ha, scale 0 to 100, 0 no effect, 100 complete control

Structure (SMILES): CCc1cc(C(=O)NC2CC2)nn1Cc1cc(C(F)(F)C(F)(F)F)nn1C [Compound 226]
- Plant response rating, Lambsquarters ([1]; Preemergence, rate head not shown (block before 16 g ai/ha), scale 0 to 100): 100
- Lambsquarters plant response rating [1, 15]: 100
- Plant response rating, Lambsquarters ([1]; preemergence, 125 g ai/ha, 13 to 15 days, scale 0 to 100, 0 = no effect, 100 = complete control): 100
- Lambsquarters plant response rating ([1]; preemergence, 250 g ai/ha, scale 0 to 100, 0 is no effect, 100 is complete control): 100

Structure (SMILES): Cc1cc(C(=O)NC(C)C)nn1Cc1ccnc(C(F)(F)F)c1 [Compound 197]
- Plant response rating (scale of 0 to 100 where 0 is no effect and 100 is complete control), Chickweed [2, 16]: 50
- Chickweed plant response rating [2, 17]: 55
- Plant response rating, Chickweed [2, 18]: 80
- Plant response rating, Chickweed [2, 19]: 60
- Plant response rating, Waterhemp [3]: 55
- Plant response rating (scale of 0 to 100 where 0 is no effect and 100 is complete control), Foxtail, Giant [4, 16]: 0
- Foxtail, Giant plant response rating [4, 17]: 0
- Plant response rating, Foxtail, Giant [4, 18]: 10
- Plant response rating, Foxtail, Giant [4, 19]: 5
- Plant response rating, Wheat [5, 20]: 5
- Wheat plant response rating ([5]; scale 0 to 100): 5
- Plant response rating, Ragweed [6, 20]: 55
- Plant response rating, Ragweed [6, 21]: 40
- Plant response rating (scale of 0 to 100 where 0 is no effect and 100 is complete control), Crabgrass, Large [7, 16]: 5
- Crabgrass, Large plant response rating [7, 17]: 5
- Plant response rating, Crabgrass, Large [7, 18]: 15
- Plant response rating, Crabgrass, Large [7, 19]: 10
- Plant response rating (scale of 0 to 100 where 0 is no effect and 100 is complete control), Blackgrass [8, 16]: 0
- Blackgrass plant response rating [8, 17]: 0
- Plant response rating, Blackgrass [8, 18]: 15
- Plant response rating, Blackgrass [8, 19]: 5
- Plant response rating (scale of 0 to 100 where 0 is no effect and 100 is complete control), Galium [9, 16]: 40
- Galium plant response rating [9, 17]: 50
- Plant response rating, Galium [9, 18]: 85
- Plant response rating, Galium [9, 19]: 50
- Plant response rating (scale of 0 to 100 where 0 is no effect and 100 is complete control), Morningglory [10, 16]: 75
- Morningglory plant response rating [10, 17]: 75
- Plant response rating, Morningglory [10, 18]: 98
- Plant response rating, Morningglory [10, 19]: 65
- Plant response rating, Ryegrass, Italian [11, 20]: 5
- Plant response rating, Ryegrass, Italian [11, 21]: 0
- Plant response rating (scale of 0 to 100 where 0 is no effect and 100 is complete control), Barnyardgrass [12, 16]: 0
- Barnyardgrass plant response rating [12, 17]: 0
- Plant response rating, Barnyardgrass [12, 18]: 10
- Plant response rating, Barnyardgrass [12, 19]: 5
- Plant response rating (scale of 0 to 100 where 0 is no effect and 100 is complete control), Corn [13, 16]: 5
- Corn plant response rating [13, 17]: 5
- Plant response rating, Corn [13, 18]: 10
- Plant response rating, Corn [13, 19]: 5
- Plant response rating, Soybean [14, 20]: 95
- Soybean plant response rating [14, 21]: 90

Structure (SMILES): CCONC(=O)c1cc(CC)n(Cc2cc(C(F)(F)F)no2)n1 [Compound 125]
- Plant response rating (scale of 0 to 100), Lambsquarters ([1]; Preemergence, 250 g ai/ha): 100
- Lambsquarters plant response rating ([1]; preemergence, 31 g ai/ha, visual rating, scale 0 to 100 (0 no effect, 100 complete control), 13 to 15 days): 15
- Lambsquarters plant response rating [1, 15]: 35
- Lambsquarters plant response rating ([1]; preemergence, 125 g ai/ha, scale 0 to 100, 0 is no effect, 100 is complete control): 75
